Laboratory results taken from US11485735B2, “Selective CDK4/6 inhibitor and preparation thereof” (Wuxi Shuangliang Biotechnology Co., Ltd., priority 2019, dated 2022).
“Also recorded” adds a separate entry of the source. Where a name gives a salt, the structure may show the parent alone.

Assays:
[1] = tested on: human colon cancer COLO205 cells; assay: Growth inhibition of tumor cells cultured in vitro, CellTiter-Glo, COLO205; assay type: cell-based; conditions: for IC50: COLO205, 72 h, CellTiter-Glo
Text: (§1) Test drugs: Compounds of the present disclosure. Tumor cell strains: human colon cancer COLO205 cells and human breast cancer MCF-7 cells.
(§2) The growth inhibitory effects on human tumor cells COLO205 and MCF-7 cultured in vitro were observed by using a CellTiter-Glo Luminescent Cell Viability Assay Kit (Promega, Cat. No. G7572). Human tumor cells COLO205 and MCF-7 were both purchased from the American Type Culture Collection.
(§3) CellTiter-Glo Luminescent Cell Viability Assay: The previous cell culture medium was discarded, and the tumor cells were rinsed twice with PBS. An appropriate amount of trypsin (VWR, Cat. No. 0458-25G) was added to digest the tumor cells until most of the cells turned round and were detached from the wall. The trypsin digestion was terminated by adding an RPMI-1640 medium (COLO205; Gibco, Cat. No. A10491-01) containing 10% fetal bovine serum (Hyclone, Cat. No. SV30160.03) and MEM medium (MCF-7; Gibco, Cat. No. 10370-021) containing 10% fetal bovine serum and 0.01 mg/mL insulin, and the cells were gently pipetted with a pipette to completely suspend the tumor cells. After cell counting, a tumor cell suspension was prepared using a complete culture medium and the final concentration was 6.7×10^4 cells/mL. 90 μL of the tumor cell suspension was seeded in each well of a 96-well culture plate (6000 cells/well). The plate was then placed in an incubator with 5% CO2 at 37° C. and incubated for 24 h. A test drug was added by using an Agilent Bravo Automated Liquid Handling Platform, and 10 μL of the sample was added in each well. The assay was conducted in triplicate for each group. A compound of the present disclosure was dissolved in DMSO (BioRoYee, Cat. No. AF0231), and then the resulting solution was diluted to 10 μM/L, 3.33 μM/L, 1.11 μM/L, 0.37 μM/L, 0.123 μM/L, 0.041 μM/L, 0.0137 μM/L, 0.0046 μM/L, and 0.0015 μM/L with the culture medium. The concentration of DMSO was lower than 0.1%, and a culture medium containing 0.1% DMSO was added to the well which was set as a vehicle control group. The 96-well plate was placed in an incubator with 5% CO2 at 37° C. and incubated for 72 h. The 96-well plate to be tested was equilibrated at room temperature for 30 min, and 100 μL of Cell Titer-Glo reagent was added to each well. The contents of each well were mixed in an orbital shaker for 2 min to induce cell lysis, and the plate was incubated at room temperature for 10 min to achieve a constant value of fluorescent intensity. Finally, the chemiluminescence intensity was detected by TECAN M1000. Data were processed with Graphpad Prism 6.0 software. The growth curve of the cells was plotted. The cell growth inhibition rate of a drug was calculated, and the half maximal inhibitory concentration (IC50) of the drug was determined.

CDK4/CyclinD3 = biological target: T1, CDK4/CyclinD3 (Homo sapiens, UniProt P11802); assay: In-vitro kinase inhibitory activity, CDK4/CyclinD3 (Caliper EZ Reader II mobility shift); assay type: biochemical; conditions: CDK4/CyclinD3 20 nM, ATP 2 mM, Peptide 1 μM, 27° C., 180 min; read-out: IC50 (half maximal inhibitory concentration, nM) CDK4
T1 construct: purchased Wuxi Biortus Biosciences Co. Ltd
T1 sequence (P11802 whole entry, species assumed): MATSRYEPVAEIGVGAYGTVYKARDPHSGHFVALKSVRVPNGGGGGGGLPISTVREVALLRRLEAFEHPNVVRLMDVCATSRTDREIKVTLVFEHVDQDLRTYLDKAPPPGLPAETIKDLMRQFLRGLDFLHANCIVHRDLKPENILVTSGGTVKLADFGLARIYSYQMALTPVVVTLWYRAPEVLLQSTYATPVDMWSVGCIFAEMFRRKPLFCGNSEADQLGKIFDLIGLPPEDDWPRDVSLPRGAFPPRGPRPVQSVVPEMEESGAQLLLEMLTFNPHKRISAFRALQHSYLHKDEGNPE
T1 sequence (P30281 whole entry partner, species assumed): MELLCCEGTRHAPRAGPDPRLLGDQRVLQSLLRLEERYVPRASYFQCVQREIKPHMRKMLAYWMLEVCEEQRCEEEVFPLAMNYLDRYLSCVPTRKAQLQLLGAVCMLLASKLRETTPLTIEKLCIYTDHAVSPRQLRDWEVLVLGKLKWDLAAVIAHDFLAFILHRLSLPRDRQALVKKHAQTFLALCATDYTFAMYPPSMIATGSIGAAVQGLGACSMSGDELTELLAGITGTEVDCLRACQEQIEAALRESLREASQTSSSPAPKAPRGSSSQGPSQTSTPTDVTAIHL
Description: The final volume for assay was 16 μL, and the reaction temperature was 27° C. CDK4/CyclinD3 was produced by Wuxi Biortus Biosciences Co. Ltd. The concentration of the kinase was determined by the results of the optimization experiment. The kinase was diluted with an assay buffer (50 mM Tris HCl pH 8.0, 0.01% Tween 20, 50 μg/mL BSA, and 5 mM MgCl2) to obtain a corresponding kinase solution (2.4× concentration). The compound was dissolved in dimethyl sulfoxide (DMSO) to reach a concentration of 10 mM. […] 2 μL of the test compound solution was mixed with 5 μL of the kinase solution, and the mixture was incubated for 10 min. 5 μL of the mixed solution of the polypeptide substrate and ATP was then added. The mixture was incubated at 27° C. for 180 min, and then the reaction was terminated by adding 4 μL of EDTA with a concentration of 120 mM to each sample. […] Each assay was conducted in at least two replicates.
(§4) The final concentrations of the reagents in the assay were as follows. […] The reaction mixture was analyzed on a Caliper EZ Reader II by electrophoretic separation of the fluorescent substrate and the phosphorylated product. Data were calculated by using GraphPad Prism version 6.0 and IC50 values were obtained by adjusting the non-linear regression models of the dose response curves.

CDK6/CyclinD3 = biological target: T2, CDK6/CyclinD3 (Homo sapiens, UniProt Q00534); assay: In-vitro kinase inhibitory activity, CDK6/CyclinD3 (Caliper EZ Reader II mobility shift); assay type: biochemical; conditions: CDK6/CyclinD3 20 nM, ATP 2 mM, Peptide 1 μM, 27° C., 120 min; read-out: IC50 (half maximal inhibitory concentration, nM) CDK6
T2 construct: purchased Wuxi Biortus Biosciences Co. Ltd
T2 sequence (Q00534 whole entry, species assumed): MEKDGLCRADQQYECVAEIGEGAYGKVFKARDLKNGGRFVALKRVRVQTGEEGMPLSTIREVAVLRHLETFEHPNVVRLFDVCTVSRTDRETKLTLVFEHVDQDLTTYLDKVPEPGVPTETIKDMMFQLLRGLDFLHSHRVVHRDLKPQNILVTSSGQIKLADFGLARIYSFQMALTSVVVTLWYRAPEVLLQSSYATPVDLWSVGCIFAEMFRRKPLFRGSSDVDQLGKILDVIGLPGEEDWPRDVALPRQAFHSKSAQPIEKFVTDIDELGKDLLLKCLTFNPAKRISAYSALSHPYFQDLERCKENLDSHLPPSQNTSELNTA
T2 sequence (P30281 whole entry partner, species assumed): as the sequence (P30281 whole entry partner, species assumed) above
Description: The final volume for assay was 16 μL, and the reaction temperature was 27° C. […] The compound was dissolved in dimethyl sulfoxide (DMSO) to reach a concentration of 10 mM. […] 2 μL of the test compound solution was mixed with 5 μL of the kinase solution, and the mixture was incubated for 10 min. 5 μL of the mixed solution of the polypeptide substrate and ATP was then added. The mixture was incubated at 27° C. for 120 min, and then the reaction was terminated by adding 4 μL of EDTA with a concentration of 120 mM to each sample. […] Each assay was conducted in at least two replicates.
as §4

CRBN = biological target: T3, CRBN (Homo sapiens, UniProt Q96SW2); assay: In-vitro inhibition assay of CRBN activity (fluorescence polarization, Cy5-Thalidomide); assay type: binding; conditions: Cy5-Thalidomide 10 nM, CRBN 180 nM, 27° C., 60 min
T3 construct: purchased Wuxi Biortus Biosciences Co. Ltd
T3 sequence (Q96SW2 whole entry, species assumed): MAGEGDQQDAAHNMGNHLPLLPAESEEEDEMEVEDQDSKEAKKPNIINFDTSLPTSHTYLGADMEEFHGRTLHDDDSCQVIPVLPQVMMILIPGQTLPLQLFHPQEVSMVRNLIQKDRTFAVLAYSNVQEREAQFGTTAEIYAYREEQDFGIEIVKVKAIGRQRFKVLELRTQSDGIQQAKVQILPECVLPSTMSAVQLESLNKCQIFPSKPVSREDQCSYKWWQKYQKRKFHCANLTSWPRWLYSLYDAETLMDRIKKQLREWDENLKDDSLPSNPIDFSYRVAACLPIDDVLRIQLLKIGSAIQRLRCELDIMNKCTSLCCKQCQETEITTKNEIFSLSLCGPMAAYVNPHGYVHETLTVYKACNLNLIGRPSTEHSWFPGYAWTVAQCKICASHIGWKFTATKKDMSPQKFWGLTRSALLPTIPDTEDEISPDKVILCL
Description: The final volume for assay was 20 μL, and the reaction temperature was 27° C. CRBN was produced by Wuxi Biortus Biosciences Co. Ltd. The concentration of the kinase was determined by the optimization experiment, and the kinase was diluted with an assay buffer (50 mM Tris, pH 7.5, 100 mM NaCl, and 0.01% Pluronic acid) to obtain a corresponding kinase solution (2× concentration). The compound was dissolved in dimethyl sulfoxide (DMSO) to reach a concentration of 10 mM. […] 5 μL of the test compound solution was mixed with 5 μL of the substrate solution, and 10 μL of the kinase solution was added to the mixture. The mixture was incubated at 27° C. for 60 min. Each assay was conducted in at least two replicates. […].
The final concentrations of the reagents in the assay were as follows. […] The data of fluorescence polarization assay were read on TECAN infinite M1000. Data were calculated by using GraphPad Prism version 6.0, and IC50 values were obtained by adjusting the non-linear regression models of the dose response curves.

CDK2 = CDK2 (Homo sapiens, UniProt P24941); assay: In-vitro kinase inhibitory activity, CDK2 (selectivity); assay type: biochemical; conditions: read-out: IC50 (half maximal inhibitory concentration, nM) CDK2
[2] = tested on: human breast cancer MCF-7 cells; assay: Growth inhibition of tumor cells cultured in vitro, CellTiter-Glo, MCF-7; assay type: cell-based; conditions: MCF-7, 72 h, CellTiter-Glo
Text: as §1, §2, §3

CDK9 = CDK9 (Homo sapiens, UniProt P50750); assay: In-vitro kinase inhibitory activity, CDK9 (selectivity); assay type: biochemical; conditions: read-out: IC50 (half maximal inhibitory concentration, nM) CDK9
Sequence of CDK9 (P50750 whole entry, species assumed): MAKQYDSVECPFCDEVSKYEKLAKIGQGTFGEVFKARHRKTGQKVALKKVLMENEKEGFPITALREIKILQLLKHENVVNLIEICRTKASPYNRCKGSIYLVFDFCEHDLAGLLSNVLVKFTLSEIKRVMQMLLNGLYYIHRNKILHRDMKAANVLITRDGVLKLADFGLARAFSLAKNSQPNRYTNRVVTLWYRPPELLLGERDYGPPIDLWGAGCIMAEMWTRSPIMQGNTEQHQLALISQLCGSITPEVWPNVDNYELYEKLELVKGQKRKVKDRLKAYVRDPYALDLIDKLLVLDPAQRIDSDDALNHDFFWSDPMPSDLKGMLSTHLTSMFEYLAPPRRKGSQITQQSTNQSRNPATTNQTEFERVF
Sequence of CDK9 (O60563 whole entry partner, species assumed): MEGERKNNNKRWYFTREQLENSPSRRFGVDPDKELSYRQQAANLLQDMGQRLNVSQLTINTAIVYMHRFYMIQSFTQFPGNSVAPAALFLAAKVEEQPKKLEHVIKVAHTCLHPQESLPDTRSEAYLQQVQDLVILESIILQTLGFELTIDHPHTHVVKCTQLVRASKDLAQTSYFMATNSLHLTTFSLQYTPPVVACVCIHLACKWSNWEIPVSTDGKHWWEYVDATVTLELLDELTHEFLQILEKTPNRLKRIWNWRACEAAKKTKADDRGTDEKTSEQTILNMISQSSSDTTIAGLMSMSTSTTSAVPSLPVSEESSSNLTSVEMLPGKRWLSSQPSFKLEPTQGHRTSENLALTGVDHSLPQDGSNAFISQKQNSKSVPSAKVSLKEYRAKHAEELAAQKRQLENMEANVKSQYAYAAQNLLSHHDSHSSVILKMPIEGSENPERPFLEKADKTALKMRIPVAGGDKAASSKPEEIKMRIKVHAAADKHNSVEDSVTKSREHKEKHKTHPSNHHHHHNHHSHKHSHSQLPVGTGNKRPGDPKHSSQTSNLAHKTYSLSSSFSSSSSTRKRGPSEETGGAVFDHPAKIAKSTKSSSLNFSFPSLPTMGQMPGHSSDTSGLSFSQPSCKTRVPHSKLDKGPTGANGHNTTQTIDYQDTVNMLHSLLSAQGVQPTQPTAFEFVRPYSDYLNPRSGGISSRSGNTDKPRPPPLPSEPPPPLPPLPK

| Structure (SMILES) | IC50 ([1]; dihydrochloride) | IC50 (CDK4/CyclinD3) | IC50 (CDK6/CyclinD3) | IC50 (CRBN) | IC50 (CDK2) | IC50 [2] | IC50 (CDK9) | IC50 ([1]; Homo sapiens, COLO 205, 72 h) | IC50 ([2]; Homo sapiens, MCF7, 72 h) | inhibitory effect on human colon cancer COLO205 cells (in words) ([1]; summary of the table, dihydrochloride) |
| --- | --- | --- | --- | --- | --- | --- | --- | --- | --- | --- |
| CC(=O)c1c(C)c2cnc(Nc3ccc(N4CCN(CCN5CCC(CN6CCN(c7ccc8c(c7)CN(C7CCC(=O)NC7=O)C8=O)CC6)CC5)CC4)cn3)nc2n(C2CCCC2)c1=O (single isomer, unassigned) [Compound 3, 3-(5-(4-((1-(2-(4-(6-((6-acetyl-8-cyclopentyl-5-methyl-7-oxo-7,8-dihydropyrido[2,3-d]pyrimidin-2-yl)amino)pyridin-3-yl)piperazin-1-yl)ethyl)piperidin-4-yl)methyl)piperazin-1-yl)-1-oxoisoindolin-2-yl)piperidine-2,6-dione] | – | 16.1 nM | 14.5 nM | 1200 nM | 9660 nM | – | 2850 nM | – | – | – |
| CC(=O)c1c(C)c2cnc(Nc3ccc(N4CCN(CC(=O)N5CCC(C(=O)N6CCN(c7ccc8c(c7)CN([C@H]7CCC(=O)NC7=O)C8=O)CC6)CC5)CC4)cn3)nc2n(C2CCCC2)c1=O [Compound 7, (S)-3-(5-(4-(1-(2-(4-(6-((6-acetyl-8-cyclopentyl-5-methyl-7-oxo-7,8-dihydropyrido[2,3-d]pyrimidin-2-yl)amino)pyridin-3-yl)piperazin-1-yl)acetyl)piperidin-4-carbonyl)piperazin-1-yl)-1-oxoisoindolin-2-yl)piperidine-2,6-dione] | – | 54.7 nM | 30 nM | 1420 nM | 7480 nM | – | 9920 nM | – | – | – |
| CC(=O)c1c(C)c2cnc(Nc3ccc(N4CCN(CCN5CCC(CC6CCN(c7ccc8c(c7)CN(C7CCC(=O)NC7=O)C8=O)CC6)CC5)CC4)cn3)nc2n(C2CCCC2)c1=O (centres unmarked) [Compound 11, 3-(5-(4-((1-(2-(4-(6-((6-acetyl-8-cyclopentyl-5-methyl-7-oxo-7,8-dihydropyrido[2,3-d]pyrimidin-2-yl)amino)pyridin-3-yl)piperazin-1-yl)ethyl)piperidin-4-yl)methyl)piperidin-1-yl)-1-oxoisoindolin-2-yl)piperidine-2,6-dione dihydrochloride] | – | 24.6 nM | 21.1 nM | – | 8200 nM | – | 4440 nM | 127 nM | > 10000 nM | – |

Further compounds by falling IC50 (CDK4/CyclinD3), results first:

| IC50 ([1]; dihydrochloride) | IC50 (CDK4/CyclinD3) | IC50 (CDK6/CyclinD3) | IC50 (CRBN) | IC50 (CDK2) | IC50 [2] | IC50 (CDK9) | IC50 ([1]; Homo sapiens, COLO 205, 72 h) | IC50 ([2]; Homo sapiens, MCF7, 72 h) | Structure (SMILES) | inhibitory effect on human colon cancer COLO205 cells (in words) ([1]; summary of the table, dihydrochloride) |
| --- | --- | --- | --- | --- | --- | --- | --- | --- | --- | --- |
| – | 44.6 nM | 19.6 nM | – | > 10000 nM | – | 3760 nM | 78.3 nM | > 10000 nM | CC(=O)c1c(C)c2cnc(Nc3ccc(N4CCN(CCN5CCN(c6ccc7c(c6Cl)CN(C6CCC(=O)NC6=O)C7=O)CC5)CC4)cn3)nc2n(C2CCCC2)c1=O (centres unmarked) [Compound 20, 3-(5-(4-(2-(4-(6-((6-acetyl-8-cyclopentyl-5-methyl-7-oxo-7,8-dihydropyrido[2,3-d]pyrimidin-2-yl)amino)pyridin-3-yl)piperazin-1-yl)ethyl)piperazin-1-yl)-4-chloro-1-oxoisoindolin-2-yl)piperidine-2,6-dione] | – |
| 25.5 nM | 36.8 nM | 22 nM | 3000 nM | > 10000 nM | > 10000 nM | 8710 nM | – | – | CC(=O)c1c(C)c2cnc(Nc3ccc(N4CCN(CCN5CCN(c6ccc7c(c6)CN(C6CCC(=O)NC6=O)C7=O)CC5)CC4)cn3)nc2n(C2CCCC2)c1=O.Cl.Cl (single isomer, unassigned) [Compound 2, 3-(5-(4-(2-(4-(6-((6-acetyl-8-cyclopentyl-5-methyl-7-oxo-7,8-dihydropyrido[2,3-d]pyrimidin-2-yl)amino)pyridin-3-yl)piperazin-1-yl)ethyl)piperazin-1-yl)-1-oxoisoindolin-2-yl)piperidine-2,6-dione dihydrochloride] | relatively good inhibitory effects; also recorded: the best inhibitory effect |
| – | 24.2 nM | 42.4 nM | 2510 nM | 1140 nM | – | 946 nM | – | – | Cc1nc2c(F)cc(-c3nc(Nc4ccc(CN5CCN(CC(=O)N6CCC(C(=O)N7CCN(c8ccc9c(c8)CN([C@H]8CCC(=O)NC8=O)C9=O)CC7)CC6)CC5)cn4)ncc3F)cc2n1C(C)C [Compound 6, (S)-3-(5-(4-(1-(2-(4-((6-((5-fluoro-4-(4-fluoro-1-isopropyl-2-methyl-1H-benzo[d]imidazol-6-yl)pyrimidin-2-yl)amino)pyridin-3-yl)methyl)piperazin-1-yl)acetyl)piperidin-4-carbonyl)piperazin-1-yl)-1-oxoisoindolin-2-yl)piperidine-2,6-dione] | – |
| – | 19.2 nM | 14.2 nM | – | > 10000 nM | – | 3510 nM | 247 nM | > 10000 nM | CC(=O)c1c(C)c2cnc(Nc3ccc(N4CCN(CCN5CCC(OC6CCN(c7ccc8c(c7)CN(C7CCC(=O)NC7=O)C8=O)CC6)CC5)CC4)cn3)nc2n(C2CCCC2)c1=O (centres unmarked) [Compound 9, 3-(5-(4-((1-(2-(4-(6-((6-acetyl-8-cyclopentyl-5-methyl-7-oxo-7,8-dihydropyrido[2,3-d]pyrimidin-2-yl)amino)pyridin-3-yl)piperazin-1-yl)ethyl)piperidin-4-yl)oxy)piperidin-1-yl)-1-oxoisoindolin-2-yl)piperidine-2,6-dione dihydrochloride] | – |
